Laboratory results as given in patent US20090292021A1, “ANTICONVULSIVE PHARMACEUTICAL COMPOSITIONS” (INSERM (INSTITUT NATIONAL DE LA SANTE ET DE LA REC, priority 2006, published 2009).

Tests used:
Format in all cases: in vivo, rat
Wistar rats [1] = assay: Immunolabeling of retinal sections: cone arrestin (cone count) and G0α (ON bipolar cells); settings: treated for 45 days
Protocol: (§1) As described previously Duboc, A., Hanoteau, N., Simonutti, M., Rudolf, G., Nehlig, A., Sahel, J. A., Picaud, S. (2004). “Vigabatrin, the GABA-transaminase inhibitor, damages cone photoreceptors in rats.” Annals of Neurology 55(5): 695-705), Wistar rats Rj Wi IOPS Han were purchased from Janvier Breeding Center (Le Genest St Isle, France) at 7 weeks and acclimatised for 2 weeks. VGB was dissolved in 0.9% NaCl at a concentration of 125 mg/ml. It was injected daily and intraperitonealy at a final dose of 250 mg/kg. To investigate the progression of visual defects with the treatment duration, rats of the same age were divided in five groups and treated with the drug for different times as described in table 1 hereunder.
After the animal sacrifice, the cornea was branded at the upper side to orient the eye cup. The eyes were dissected, the cornea and lens removed and a nick was made on the upper side of the eye cup. Eye cups were embedded in OCT (Labonord, Villeneuve d'Ascq, France) to prepare cryosection (Duboc et al 2004, Supra). Dorso-ventral retinal sections passing through the optic nerve were stained with Diamidi-phenyl-indole (DAPI). The DAPI-nuclear staining was visualized on a Leica microscope (20× objective) and digitalized on a camera coupled to optical image analysis software (Analysis program). The retinal length showing displaced photoreceptor nuclei was measured on both part of the optic nerve on the retina of VGB-treated rat.
For immunolabeling, the oriented retinal sections were permeabilized for 5 minutes in PBS containing 0.1% Triton X-100 (Sigma, St Louis, Mo.), rinsed and incubated in PBS containing 1% bovine serum albumin (Eurobio, Les-Ulis, France), 0.1% Tween 20 (Sigma) and 0.1% sodium azide (Merck, Fontenay-Sous-Bois) for 2 hours at room temperature. The primary antibodies added to the solution were incubated for 2 hours at room temperature. Antibodies used were the anti-VEGF rabbit polyclonal antibody (1:400, Ab-1, NeoMarkers, Interchim, France), the monoclonal anti-vimentin antibody (1:400, cloneV9, DAKO, France), the polyclonal mCAR antibody (1:10,000; a gift from Dr Cheryl Craft (Keck School of Medicine of the University of Southern California, Los Angeles, USA)), and the monoclonal anti-G0-α antibody (1:500, Chemicon). After several washes, sections were incubated with the secondary antibodies, goat anti-rabbit IgG conjugated to Alexa TM 594 and goat anti-mouse IgG conjugated to Alexa TM 488 (1:500, (Molecular Probes, Eugene, Oreg.) for 2 hours. The nuclear dye, DAPI, was added in an incubation solution. Sections were mounted with the Fluorsave reagent (Calbiochem, San Diego, Calif.).

Wistar rats [2] = assay: Exploration of eye fundus with scanning laser ophthalmoscope (SLO)
Protocol: as §1
Examination of the eye fundus was performed with a Scanning Laser Opthalmoscope (SLO) (HRA, Heidelberg, Dossenheim, Allemagne). Pupils were dilated with a drop of 0.5% tropicamide. During the examination an experimenter hold the animal to point the eye in the axis of camera. To limit animal stress, the duration of examination was minimized and these short sequences were alternated with rests periods. Eye fundus in each animal eye was examined in unanaesthetized rats with the 534 nm laser light beam using a filter to decrease its intensity. Fundus autofluorescence was obtained with the 488 nm laser beam.

Wistar rats [3] = assay: VEGF immunolabeling of retinal sections; settings: VGB-treated vs control animals
Protocol: as §1
After the animal sacrifice, the cornea was branded at the upper side to orient the eye cup. The eyes were dissected, the cornea and lens removed and a nick was made on the upper side of the eye cup. Eye cups were embedded in OCT (Labonord, Villeneuve d'Ascq, France) to prepare cryosection (Duboc et al 2004, Supra). Dorso-ventral retinal sections passing through the optic nerve were stained with Diamidi-phenyl-indole (DAPI). […] The retinal length showing displaced photoreceptor nuclei was measured on both part of the optic nerve on the retina of VGB-treated rat. […]

Wistar rats [4] = assay: Length of disorganized outer retina on DAPI-stained retinal sections; settings: treatment of 45 days, mean ± S.E.M, n=8
Protocol: as §1
After the animal sacrifice, the cornea was branded at the upper side to orient the eye cup. The eyes were dissected, the cornea and lens removed and a nick was made on the upper side of the eye cup. Eye cups were embedded in OCT (Labonord, Villeneuve d'Ascq, France) to prepare cryosection (Duboc et al 2004, Supra). Dorso-ventral retinal sections passing through the optic nerve were stained with Diamidi-phenyl-indole (DAPI). […] The retinal length showing displaced photoreceptor nuclei was measured on both part of the optic nerve on the retina of VGB-treated rat.

Wistar rats [5] = assay: Flicker ERG recording in VGB-treated rats; settings: for decrease of flicker ERG amplitude: vs before treatment
Protocol: as §1
Flicker ERGs were recorded on each animal before the treatment, at the end of the VGB treatment, and 4-day later. For the study of functional recovery after VGB withdrawal, flicker ERGs were recorded before the treatment, at 35-day of treatment, 16-day recovery and 60-day recovery period.
Animals were kept in the dark room for at least 12 hours and handled under dim red light. They were anaesthetized by an intraperitoneal (i.p) injection (1 to 1.5 ml/kg) of a solution containing ketamine (40 mg/ml) and xylazine (4 mg/ml Rompum). Pupils were dilated with a drop of 0.5% tropicamide, and the cornea was locally anaesthetized with a drop of 0.4% chlorhydrate d'oxybupropacaïne. Measurements were obtained from the right eye of animals laid on a temperature controlled blanket. The measuring electrode, a gold ring covered with a plastic contact lens, was placed on the cornea and a tight electrical contact was obtained by addition of methylcellulose. The reference and ground electrodes made from needles were subcutaneously inserted at the head and the tail respectively. Finally, the whole animal was placed in a Ganzfeld bowl delivering light stimuli (Toennies Multiliner Vision, Höchberg, Germany). For flickering ERG measurements, animals were adapted for 10 minutes to a white background light at a 25 cdm^−2 to suppress rod responses. Flicker responses were obtained with 50 white light flashes at a 2.5 cdsm^−2 intensity and a 15 Hz flickering frequency (High pass filter 1 Hz and low pass filter 300 Hz). Amplitude and implicit time responses of the flicker ERG were measured at the first maximum positive peak with respect to the light onset.

Wistar rats [6] = assay: Indocyanine green (ICG) angiography of choroidal vessels
Protocol: as §1
For ICG angiography, animals were anesthetized as above. A solution of Infracyanine (0.1 ml, 5 mg/ml, Société d'Etude et de Recherche Biologiques, Paris, France) dissolved in distilled water was injected intravenously. Images were obtained with the 795 nm laser light immediately after the injection.

SMILES: C=CC(N)CCC(=O)O (centres unmarked) [VGB, 4-amino-5-hexenoic acid]
- ON bipolar cells labeled with G0α antibody (Wistar rats [1]): some cells were observed to send a process into the ONL
- cone morphology, cone arrestin labelling (Wistar rats [1]): many cones were observed to be truncated
- decrease in density of cones vs control rats (Wistar rats [1]; cone arrestin immunolabeling): 18.7%
- density of cones (Wistar rats [1]; cone arrestin immunolabeling, n=7): 12.34±0.36 cells/300 μm
- retinal autofluorescence, SLO (Wistar rats [2]; 488 nm laser, in vivo): fluorescent spots were observed in the modified areas in two rats
- modified retinal areas at eye fundus, SLO (Wistar rats [2]; after arresting the VGB treatment for one month (n=2)): remained visible
- modified retinal areas (dark/grey network) at eye fundus, green laser SLO (Wistar rats [2]; after treatment of 25 days (n=4), 35 days (n=1) and 55 days (n=4)): present in all animals examined
- modified retinal areas at eye fundus, SLO (Wistar rats [2]; animals treated for 5 days (n=1) or 11 days (n=3)): No such modified areas were detected
- VEGF expression in retina (Müller glial cells) (Wistar rats [3]): increase in VEGF expression
- length of disorganized outer retina, lower pole (Wistar rats [4]): 70 μm
- length of disorganized outer retina, upper pole (Wistar rats [4]): 1106 μm
- flicker ERG amplitude (Wistar rats [5]; 15-day treatment, after 4-day recovery period): 51 μV
- flicker ERG amplitude (Wistar rats [5]; 25-day treatment, after 4-day recovery period): 38 μV
- flicker ERG amplitude (Wistar rats [5]; 35-day treatment, after 4-day recovery period): 50 μV
- flicker ERG amplitude (Wistar rats [5]; end of 5-day treatment, 250 mg/kg daily i.p.): 83 μV
- flicker ERG amplitude (Wistar rats [5]; end of 15-day treatment, 250 mg/kg daily i.p.): 52 μV
- decrease of flicker ERG amplitude (Wistar rats [5]; end of 15-day treatment): 45%
- flicker ERG amplitude (Wistar rats [5]; end of 25-day treatment, 250 mg/kg daily i.p.): 21 μV
- decrease of flicker ERG amplitude (Wistar rats [5]; end of 25-day treatment): 79%
- flicker ERG amplitude (Wistar rats [5]; end of 35-day treatment, 250 mg/kg daily i.p.): 29 μV
- decrease of flicker ERG amplitude (Wistar rats [5]; end of 35-day treatment): 71%
- flicker ERG amplitude (Wistar rats [5]; recovery study, 35-day treatment, 16-day recovery): 84 μV
- reduction of flicker ERG (Wistar rats [5]; recovery study, 35-day treatment, 16-day recovery, vs value before treatment): 31%
- flicker ERG amplitude (Wistar rats [5]; recovery study, 35-day treatment, 60-day recovery): 88 μV
- reduction of flicker ERG (Wistar rats [5]; recovery study, 35-day treatment, 60-day recovery, vs value before treatment): 28%
- flicker ERG amplitude (Wistar rats [5]; recovery study, 35-day treatment, immediately after treatment, n=6): 51 μV
- reduction of flicker ERG (Wistar rats [5]; recovery study, 35-day treatment, immediately after treatment, vs beginning of experiment): 58%
- size or aspect of the choroidal vasculature (Wistar rats [6]; after treatment of 25 (n=4) and 55 days (n=4)): no change in the size or aspect of the choroidal vasculature could be detected
- ICG fluorescence in areas showing modified eye fundus after extravasation (Wistar rats [6]; animals treated for 55 days): inhomogeneous fluorescent image
